From the supplement of paper PMC10307832

Experiments:
Assay in all cases: relative viability (nuclei count vs DMSO), 5 days (fraction); higher = more cells survive
[1] = compound: CC1=C(C(=O)N2C=CSC2=N1)CCN3CCC(=C(C4=CC=CC=C4)C5=CC=C(C=C5)F)CC3 + COc1cccc2cc(-c3nc([C@H]4CC[C@H](C(=O)O)CC4)n4ncnc(N)c34)[nH]c12 [OSI-027] (partner 0.5 µM)
Summary of the method: (§1)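 Five library-drug doses in √10 steps were combined with a fixed anchor-drug dose, or a single drug was given alone, by pin tool to lung cancer cell lines in 1536-well plates the day after seeding. Nuclei were stained and counted after 5 days. Relative viability is the nuclei count in treated wells over that in vehicle wells, taken as the median of duplicate plates.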

[2] = compound: CC1=C(C(=O)N2C=CSC2=N1)CCN3CCC(=C(C4=CC=CC=C4)C5=CC=C(C=C5)F)CC3 + CC(=O)Nc1cccc(-n2c(=O)n(C3CC3)c(=O)c3c(Nc4ccc(I)cc4F)n(C)c(=O)c(C)c32)c1 [Trametinib] (partner 0.02 µM)
Summary of the method: as §1

[3] = compound: CC1=C(C(=O)N2C=CSC2=N1)CCN3CCC(=C(C4=CC=CC=C4)C5=CC=C(C=C5)F)CC3 + CS(=O)(=O)CCNCc1ccc(-c2ccc3ncnc(Nc4ccc(OCc5cccc(F)c5)c(Cl)c4)c3c2)o1 [Lapatinib] (partner 2 µM)
Summary of the method: as §1

[4] = compound: CC1=C(C(=O)N2C=CSC2=N1)CCN3CCC(=C(C4=CC=CC=C4)C5=CC=C(C=C5)F)CC3 + C[C@]1(O)C[C@@H](c2nc(-c3ccc4ccc(-c5ccccc5)nc4c3)c3c(N)nccn32)C1 [Linsitinib] (partner 1 µM)
Summary of the method: as §1

Row | Cell Line | relative viability ([1]; first compound 0.08 µM) | relative viability ([1]; first compound 0.253 µM) | relative viability ([1]; first compound 0.8 µM) | relative viability ([1]; first compound 2.53 µM) | relative viability ([1]; first compound 8 µM) | relative viability ([2]; first compound 0.08 µM) | relative viability ([2]; first compound 0.253 µM) | relative viability ([2]; first compound 0.8 µM) | relative viability ([2]; first compound 2.53 µM) | relative viability ([2]; first compound 8 µM) | relative viability ([3]; first compound 0.08 µM) | relative viability ([3]; first compound 0.253 µM) | relative viability ([3]; first compound 0.8 µM) | relative viability ([3]; first compound 2.53 µM) | relative viability ([3]; first compound 8 µM) | relative viability ([4]; first compound 0.08 µM) | relative viability ([4]; first compound 0.253 µM) | relative viability ([4]; first compound 0.8 µM) | relative viability ([4]; first compound 2.53 µM) | relative viability ([4]; first compound 8 µM)
1 | NCI-H838 | 0.445 | 0.339 | 0.37 | 0.454 | 0.352 | 0.391 | 0.558 | 0.565 | 0.617 | 0.24 | 0.806 | 0.826 | 0.917 | 1.43 | 0.596 | 1.02 | 1.02 | 1.02 | 1.31 | 0.809
2 | NCI-H1355 | 0.377 | 0.405 | 0.355 | 0.421 | 0.424 | 0.49 | 0.444 | 0.407 | 0.408 | 0.421 | 1.04 | 0.981 | 1.03 | 0.997 | 0.885 | 0.775 | 0.876 | 0.844 | 0.856 | 0.588
3 | NCI-H1395 | 0.685 | 0.626 | 0.558 | 0.596 | 0.621 | 1.05 | 0.97 | 0.992 | 1 | 0.872 | 1.11 | 0.97 | 0.908 | 1 | 0.821 | 1.21 | 0.982 | 1.08 | 0.891 | 1.07
4 | NCI-H1437 | 0.978 | 0.879 | 0.836 | 1.08 | 0.631 | 0.385 | 0.56 | 0.588 | 0.601 | 0.28 | – | 0.718 | 0.88 | 0.928 | 0.487 | – | 1.07 | 1.14 | 1.14 | 0.622
5 | NCI-H1651 | 0.71 | 0.768 | 0.698 | 0.697 | 0.461 | 0.783 | 0.915 | 0.837 | 0.866 | 0.712 | 0.876 | 0.759 | 0.912 | 1.02 | 0.514 | 0.925 | 0.863 | 0.969 | 1.19 | 0.673
6 | NCI-H1666 | 0.872 | 0.913 | 0.731 | 0.8 | 0.606 | 0.76 | 0.891 | 0.9 | 0.985 | 0.717 | 0.565 | 0.704 | 0.584 | 0.621 | 0.486 | 0.86 | 0.734 | 0.768 | 0.886 | 0.621
7 | NCI-H1734 | 0.549 | 0.571 | 0.564 | 0.576 | 0.416 | 0.741 | 0.598 | 0.691 | 0.688 | 0.512 | 1.08 | 0.866 | 0.984 | 1.33 | 0.71 | 0.766 | 0.825 | 0.948 | 1.1 | 0.429
8 | NCI-H1755 | 0.744 | 0.861 | 0.664 | 0.68 | 0.672 | 0.751 | 0.716 | 0.794 | 0.778 | 0.595 | 1.08 | 1.01 | 1.05 | 1.08 | 0.861 | 1.04 | 0.98 | 0.973 | 0.981 | 0.779
9 | NCI-H1792 | 0.596 | 0.643 | 0.789 | 0.566 | 0.485 | 0.205 | 0.432 | 0.378 | 0.531 | 0.166 | 1.02 | 0.401 | 0.931 | 0.921 | 0.489 | 0.446 | 0.353 | 0.606 | 0.379 | 0.575
10 | NCI-H1793 | 0.302 | 0.3 | 0.261 | 0.293 | 0.186 | 0.433 | 0.407 | 0.443 | 0.47 | 0.426 | 0.793 | 0.535 | 0.748 | 0.864 | 0.575 | 0.74 | 0.819 | 1.09 | 0.834 | 0.437
11 | NCI-H1915 | 0.758 | 0.599 | 0.589 | 0.642 | 0.464 | 0.331 | 0.326 | 0.322 | 0.283 | 0.261 | 1.22 | 1.07 | 0.959 | 1.12 | 0.691 | 1.16 | 1.12 | 1.07 | 1.18 | 0.832
12 | NCI-H1944 | 0.408 | 0.42 | 0.37 | 0.426 | 0.31 | 0.382 | 0.373 | 0.436 | 0.368 | 0.335 | 1.1 | 0.904 | 0.773 | 1.1 | 0.898 | 1.3 | 1.16 | 1.07 | 1.21 | 1.23
13 | NCI-H1975 | 0.912 | 0.673 | 0.679 | 0.836 | 0.437 | 0.349 | 0.389 | 0.389 | 0.35 | 0.311 | 0.97 | 0.855 | 0.867 | 0.891 | 0.518 | 0.984 | 0.817 | 0.982 | 0.908 | 0.519
14 | NCI-H1993 | 0.611 | 0.498 | 0.546 | 0.58 | 0.626 | 0.494 | 0.364 | 0.501 | 0.511 | 0.513 | 0.801 | – | 0.886 | 0.706 | 0.808 | 0.763 | – | 0.67 | 0.713 | 0.89
15 | NCI-H2009 | 0.638 | 0.619 | 0.616 | 0.637 | 0.527 | 0.36 | 0.265 | 0.279 | 0.287 | 0.284 | 1.01 | 0.903 | 0.785 | 0.946 | 0.786 | 1.29 | 1.29 | 1.19 | 1.16 | 1.12
16 | NCI-H2023 | 0.4 | 0.404 | 0.386 | 0.39 | 0.301 | 0.592 | 0.478 | 0.588 | 0.617 | 0.452 | 0.876 | 0.796 | 0.783 | 0.966 | 0.9 | 0.63 | 0.598 | 0.718 | 0.723 | 0.582
17 | NCI-H2085 | 0.818 | 0.704 | 0.87 | 0.799 | 0.464 | 0.484 | 0.52 | 0.491 | 0.66 | 0.452 | 0.805 | 0.774 | 0.763 | 0.986 | 0.72 | 1.1 | 0.92 | 1.02 | 1.06 | 0.7
18 | NCI-H2087 | 0.364 | 0.587 | 0.696 | 0.566 | 0.237 | 0.177 | 0.211 | 0.256 | 0.255 | 0.705 | 1.13 | 0.88 | 1.07 | 1.23 | 0.843 | 1.06 | 0.9 | 0.852 | 1.12 | 0.745
19 | NCI-H2126 | 0.719 | 0.753 | 0.699 | 0.779 | 0.792 | 0.591 | 0.514 | 0.58 | 0.607 | 0.466 | 0.848 | 0.815 | 0.77 | 0.772 | 0.836 | 0.712 | 0.729 | 0.801 | 0.797 | 0.716
20 | NCI-H2228 | 0.567 | 0.532 | 0.632 | 0.597 | 0.378 | 0.481 | 0.417 | 0.612 | 0.506 | 0.332 | 1.04 | 0.974 | 1.14 | 0.99 | 0.635 | 0.769 | 0.803 | 0.672 | 0.706 | 0.445
21 | NCI-H2347 | 0.371 | 0.425 | 0.406 | 0.332 | 0.349 | 0.271 | 0.267 | 0.262 | 0.352 | 0.309 | 0.947 | 1.12 | 0.965 | 0.931 | 0.917 | 0.921 | 0.958 | 0.977 | 0.932 | 0.804
22 | NCI-H2405 | 0.664 | 0.614 | 0.677 | 0.624 | 0.606 | 0.711 | – | 0.676 | 0.742 | 0.464 | 1.29 | 1.06 | 1.05 | 1.17 | 0.955 | 0.999 | 1.14 | 1.1 | 0.862 | 0.744
23 | NCI-H3122 | 0.916 | 1.02 | 1.11 | 1.07 | 0.596 | 0.214 | 0.247 | 0.229 | 0.235 | 0.229 | 1.01 | 1.14 | 1.03 | 1.2 | 0.964 | 1.04 | 1.05 | 0.998 | 1.19 | 1.02
24 | PC-3 [JPC-3] | 0.783 | 0.662 | 0.831 | 0.772 | 0.633 | 0.645 | – | 0.834 | 0.822 | 0.664 | 0.392 | 0.496 | 0.454 | 0.454 | 0.449 | 0.884 | 0.914 | 1.01 | 1.04 | 0.893
25 | PC-14 | 0.529 | 0.981 | 1.04 | 1.17 | 0.507 | 0.523 | 0.984 | 0.927 | 1.61 | 0.476 | 0.296 | 0.335 | 0.301 | 0.352 | 0.295 | 0.904 | 1.07 | 1.02 | 0.947 | 0.734
26 | RERF-LC-KJ | 0.411 | 0.583 | 0.546 | 0.523 | 0.497 | 0.833 | 0.893 | 0.837 | 0.794 | 0.578 | 0.873 | 0.753 | 0.921 | 0.907 | 0.666 | 0.879 | 0.933 | 0.883 | 0.832 | 0.672
27 | SK-LU-1 | 0.396 | 0.341 | 0.38 | 0.318 | 0.294 | 0.526 | 0.424 | 0.479 | 0.645 | 0.402 | 0.675 | 0.918 | 1.05 | 1.07 | 0.62 | 1.17 | 0.93 | 1.15 | 1.38 | 0.814
28 | SK-MES-1 | 0.405 | 0.524 | 0.587 | 0.554 | 0.706 | 0.578 | 0.523 | 0.545 | 0.594 | 0.474 | 0.453 | 0.537 | 0.478 | 0.437 | 0.481 | 1.1 | 1.2 | 1.08 | 1.03 | 0.789
29 | SW 1573 | – | 0.645 | 0.716 | 0.676 | 0.351 | 0.562 | 0.678 | 0.646 | 0.652 | 0.354 | 1.26 | 1.2 | 1.05 | 1.27 | 1.06 | 0.843 | 0.804 | 0.795 | 0.835 | 0.721
30 | UMC-11 | 0.591 | 0.469 | 0.504 | 0.48 | 0.351 | 0.461 | – | 0.701 | 0.778 | 0.556 | 0.999 | 0.745 | 0.86 | 1.21 | 0.821 | 1.06 | 0.972 | 1.04 | 1.33 | 0.824
